Reference: patent US20260184701A1, “FIVE-MEMBERED HETEROARYL COMPOUND AND AGRICULTURAL AND HORTICULTURAL FUNGICIDE” (Nippon Soda Co., Ltd., priority 2022, published 2026)

Assays:
Colletotrichum acutatum = assay: Fungicidal effect test against fungus causing apple anthracnose (spore suspension, turbidity); type: cell-based; conditions: 96 h, 25 ppm by volume, Czapek medium, 25° C., four days
Glomerella cingulata = assay: Fungicidal effect test against fungi causing grape ripe rot disease (spore suspension, turbidity); type: cell-based; conditions: Colletotrichum gloeosporioides, 72 h; 25 ppm by volume; Vogel medium; 25° C., three days
Botrytis cinerea = assay: Control test of cucumber gray mold (sprayed young cucumber seedlings, inoculated); conditions: in Cucumis sativus, 96 h, read-out: control value
Experimental: Water was added to the emulsion to obtain a drug liquid in which the concentration of the five-membered heteroaryl compound according to the present invention reached a predetermined concentration. Then, the drug liquid was sprayed onto young cucumber seedlings cultivated in a nursery pot (variety “Jihai”-based, cotyledon stage), and then air-dried. […] They were left still in a moist room at 20° C.

Row | SMILES | inhibition of growth at 25 ppm (Colletotrichum acutatum) [%] | inhibition of growth at 25 ppm (Glomerella cingulata) [%] | pest or weed control at 25 ppm (Botrytis cinerea) [%] | pest or weed control at 125 ppm (Botrytis cinerea) [%]
1 | C=C/C(=C\C=C\C)CCN/C(=N\OC)c1c(Oc2cccc(Br)c2)cnn1C [a-2] | ≥ 75 | ≥ 75 | ≥ 75 | –
2 | Cc1ccc(CC2CON=C(c3c(Oc4cccc(C5CC5)c4)cnn3C)N2)c(C)c1 (stereo not drawn) [a-3] | ≥ 75 | ≥ 75 | – | ≥ 75
3 | C=C(C)/C(=C\C=C\C)CC(CON)NCc1c(Oc2ccc(Br)cc2)cnn1C (stereo not drawn) [a-5] | ≥ 75 | ≥ 75 | – | –
4 | CO/N=C(\NCCC1CC=C(C)C=C1C)c1c(Oc2ccc(C3CC3)cc2)cnn1C (stereo not drawn) [a-6] | – | ≥ 75 | – | –
5 | Cc1ccc(Oc2cnn(C)c2C2=NOCC(Cc3ccc(C)cc3C)N2)cc1 (stereo not drawn) [a-7] | ≥ 75 | ≥ 75 | – | –
6 | CO/N=C(\NCCc1ccc(C)cc1)c1c(Oc2cccc(I)c2)cnn1C [a-8] | ≥ 75 | ≥ 75 | – | ≥ 75
7 | CCc1cccc(Oc2cnn(C)c2C2=NOCC(Cc3ccc(C)cc3C)N2)c1 (stereo not drawn) [a-10, 5-(2,4-dimethylbenzyl)-3-(4-(3-ethylphenoxy)-1-methyl-1H-pyrazol-5-yl)-5,6-dihydro-4H-1,2,4-oxadiazine] | ≥ 75 | ≥ 75 | – | –
8 | Cc1cccc(Oc2nnn(C)c2C2=NOCC(Cc3ccc(C)cc3C)N2)c1 (stereo not drawn) [a-12] | ≥ 75 | ≥ 75 | ≥ 75 | ≥ 75
9 | CO/N=C(\NCCc1ccc(C)cc1)c1c(Oc2ccc(Cl)c(C)c2)nnn1C [a-13] | ≥ 75 | ≥ 75 | – | –
10 | CO/N=C(\NCCc1ccc(C)cc1C)c1c(Oc2cccc(C(F)(F)F)c2F)nnn1C [a-16] | ≥ 75 | ≥ 75 | – | –
11 | C/C=C(C)\C=C(\C)CCCN/C(=N\OC)c1c(Oc2cccc(Cl)c2)cnn1C [a-17] | ≥ 75 | ≥ 75 | – | –
12 | Cc1cccc(Oc2c(Cl)nn(C)c2C2NOCC(Cc3ccc(C)cc3C)N2)c1 (stereo not drawn) [a-18] | ≥ 75 | ≥ 75 | – | –
13 | C/C=C(C)\C=C(\C)CCC1CON=C(c2c(Oc3cccc(Br)c3F)cnn2C)N1 (stereo not drawn) [a-19] | ≥ 75 | ≥ 75 | – | –
14 | CCn1ncc(Oc2cccc(C)c2)c1CNC(CON)Cc1ccc(C)cc1C (stereo not drawn) [a-20] | ≥ 75 | ≥ 75 | – | –
15 | C/C=C(Cl)\C=C(\Cl)CCC1CON=C(c2c(Oc3cccc(C)c3)cnn2CC)N1 (stereo not drawn) [a-21] | ≥ 75 | ≥ 75 | – | –
16 | C=C/C(=C\C=C\Br)CCN/C(=N\OC)c1c(Oc2cccc(C)c2)cnn1CC [a-22] | ≥ 75 | ≥ 75 | – | –
17 | CO/N=C(\NCCc1ccc(Br)cc1)c1c(Oc2cccc(C)c2)cnn1C [a-23] | ≥ 75 | ≥ 75 | – | –
18 | Cc1ccc(CC2CON=C(c3c(Oc4cccc(Br)c4)cnn3CC(F)(F)F)N2)cc1 (stereo not drawn) [a-24] | ≥ 75 | ≥ 75 | – | –
19 | Cn1ncc(Oc2cccc(C(F)(F)F)c2)c1C1=NOCC(c2cccs2)N1 (stereo not drawn) [a-25, 3-(1-methyl-4-(3-(trifluoromethyl)phenoxy)-1H-pyrazol-5-yl)-5-(thiophen-2-yl)-5,6-dihydro-4H-1,2,4-oxadiazine] | – | ≥ 75 | – | –
20 | Cc1ccc(C2CON=C(c3c(Oc4cccc(C(F)(F)F)c4)cnn3C)N2)s1 (stereo not drawn) [a-26, 3-(1-methyl-4-(3-(trifluoromethyl)phenoxy)-1H-pyrazol-5-yl)-5-(5-methylthiophen-2-yl)-5,6-dihydro-4H-1,2,4-oxadiazine] | ≥ 75 | ≥ 75 | – | –
21 | C=C/C(=C\C=C\C)CC1CON=C(c2c(Oc3cccc(C)c3)cnn2C(C)C)N1 (stereo not drawn) [a-27] | ≥ 75 | ≥ 75 | ≥ 75 | ≥ 75
22 | Cc1cc(C2CON=C(c3c(Oc4cccc(C(F)(F)F)c4)cnn3C)N2)c(C)s1 (stereo not drawn) [a-28] | ≥ 75 | ≥ 75 | – | –
23 | Cc1ccc(C(CON)NCc2c(Oc3cccc(C(F)(F)F)c3)cnn2C)o1 (stereo not drawn) [a-29] | – | ≥ 75 | – | –
24 | CCn1nc(Cl)c(Oc2cccc(C(F)(F)F)c2)c1C1=NOCC(Cc2ccc(C)cc2C)N1 (stereo not drawn) [a-30, 3-(3-chloro-1-ethyl-4-(3-(trifluoromethyl)phenoxy)-1H-pyrazol-5-yl)-5-(2,4-dimethylbenzyl)-5,6-dihydro-4H-1,2,4-oxadiazine] | ≥ 75 | ≥ 75 | ≥ 75 | ≥ 75
25 | C=C/C(=C\C=C\C)CC1CON=C(c2c(Oc3cccc(C)c3)c(C)nn2C)N1 (stereo not drawn) [a-31] | ≥ 75 | ≥ 75 | – | –
26 | CO/N=C(\NCCc1ccc(C)cc1C)c1c(Oc2cccc(C#N)c2)cnn1C [a-33] | ≥ 75 | ≥ 75 | – | –
27 | C/C=C(C#N)\C=C(\C)CCC1CON=C(c2c(Oc3cccc(C)c3)cnn2C)N1 (stereo not drawn) [a-34] | ≥ 75 | ≥ 75 | – | ≥ 75
28 | C/C=C/c1ccc(CC2CON=C(c3c(Oc4cccc(C)c4)cnn3C)N2)c(C)c1 (stereo not drawn) [a-35] | ≥ 75 | ≥ 75 | – | –
